Marks after values point to notes of the source that are not given here.
Tests used:
[1] = Plasma concentration in FRE/erbB2 tumor-bearing mice
Method: (§1) The test compound was either administered using tail vein infusion or orally.
(§2) A 1.15 mg/ml solution of the test compound was infused IV at 550 μl/hr for 2 minute ramped infusions followed by 50 μl/hr for 15 min or 4 hour daily infusions. (Projection was based on Cl of the test compound). Athymic female mice bearing FRE/erbB2 tumors (˜100 mm^3 in size) were treated with vehicle, the test compound orally or the test compound intravenously. […] The study was carried out for 7 days. Plasma and tumor samples were isolated for PK and PD analysis at the termination of study.

[2] = target: erbB2 receptor autophosphorylation (Homo sapiens, UniProt P04626); assay: p-erbB2 reduction in MDA-MB-453 tumors by ELISA; format: in vivo
Method: Study Design: Exponentially growing MDA-MB-453 cells (DMEM/F12 with 10% FBS, and pen/strep [Gibco]) were harvested and inoculated SC (5 million cells/animal) into female athymic mice. MDA-MB-453 tumor bearing mice (˜100 mm^3 in size, N=64) were randomized in 8 groups consisting 8 animals each. Animals were treated with vehicle (PO, QD or BID) or the test compound (PO, QD or BID) as described in Table 6. The tumor measurements and body weight changes were obtained on days 1, 3, 7, 10, 14, 17, 21, 24, and 29. Tumor volume was calculated by the following formula: Tumor volume (mm^3)═(W×W)/2×L (L=length & W=width). Blood samples (˜50 μl) were isolated at 0.5, 1, 2, 4 and 8 hrs after dosing on day 29 for PK-analysis. Tumors were isolated at 0.5 hr post-dosing on day 29 for PD-analysis by ELISA.

in vivo = conditions: athymic, mouse, plasma
Method: as §1, §2

[3] = Pharmacokinetics in SK-OV-3 tumor-bearing mice; format: in vivo; conditions: for Cave0-4 h / AUC(0-t) / Cmax: PO; for AUC(0-t) / Cmax: female, athymic, mouse, blood, po; for AUC(0-t): read-out: AUC0-4 h; for Cmax: read-out: Cmax 0.5 h
Method: SK-OV-3 cells obtained from ATCC (Rockville, Md.) were grown in McCoy's medium containing 10% fetal bovine serum and pen/strep. Exponentially growing cells were harvested and inoculated SC (5 million cells/animal) into female athymic mice. The tumor measurements and body weight changes were obtained on days 1, 3, 6, 10, 13 and 18. Tumor volume was calculated by the following formula: Tumor volume (mm^3)═(W×W)/2×L (L=length & W=width). Blood samples (˜50 μl) were isolated at 0.5, 1, 2, 4 and 8 hrs after dosing on day 18 for PK-analysis. Tumors were isolated at 0.5 hr post-dosing on day 18 for PD-analysis by ELISA. The p-erbB2 reduction, tumor volume and body weight changes in control and test compound treated animals are shown below in Table 2.

FRE/erbB2 tumors = assay: FRE/erbB2 tumor growth in athymic mice; format: in vivo, murine; conditions: for % GI (% Growth Inhibition): day 7
From the text: The in vivo anti-tumor activity of the compounds for use in the methods of the present invention can be determined by the amount of inhibition of tumor growth by a test compound relative to a control. The tumor growth inhibitory effects of various compounds can be measured according to the method of Corbett T. H., et al., “Tumor Induction Relationships in Development of Transplantable Cancers of the Colon in Mice for Chemotherapy Assays, with a Note on Carcinogen Structure”, Cancer Res., 35, 2434-2439 (1975) and Corbett T. H., et al., “A Mouse Colon-tumor Model for Experimental Therapy”, Cancer Chemother. Rep. (Part 2)”, 5, 169-186 (1975), with slight modifications. Tumors can be induced in the left flank of mice by subcutaneous (sc) injection of 1-5 million log phase cultured tumor cells suspended in 0.1 ml RPMI 1640 medium. After sufficient time has elapsed for the tumors to become palpable (˜100-150 mm^3 in size/5-6 mm in diameter) the test animals (athymic female mice) are treated with test compound (formulated at a concentration of 10 to 15 mg/ml in 5 Gelucire or 0.5% methyl cellulose) by the intravenous (iv) or oral (po) route of administration once or twice daily for 7 to 29 consecutive days. In order to determine an anti-tumor effect, the tumor is measured in millimeters with a Vernier caliper across two diameters and the tumor size (mm^3) is calculated using the formula: Tumor size (mm^3)=(W×W)/2×L (L=length and W=width), according to the methods of Geran, R. I., et al. “Protocols for Screening Chemical Agents and Natural Products Against Animal Tumors and Other Biological Systems”, Third Edition, Cancer Chemother. Rep., 3, 1-104 (1972). Results are expressed as percent inhibition, according to the formula: Inhibition Growth (%)=[100-{(% Growth of Treated/% Growth of Control)×100}]. The flank site of tumor implantation provides reproducible dose/response effects for a variety of chemotherapeutic agents, and the method of measurement (tumor diameter) is a reliable method for assessing tumor growth rates.
An objective of the pre-clinical investigations was to determine whether the Cmax or area under the curve (AUC) of the test compound is critical for the anti-tumor efficacy. An additional goal was to establish a pharmacokinetics/pharmacodynamics (PK/PD) relationship in the FRE/erbB2 tumor model. The FRE/erbB2 is an engineered murine tumor model, which over-expresses human erbB2 with a trans-membrane mutation.

[4] = Body weight and tolerability, FRE/erbB2 study
Method: A 1.15 mg/ml solution of the test compound was infused IV at 550 μl/hr for 2 minute ramped infusions followed by 50 μl/hr for 15 min or 4 hour daily infusions. […] Athymic female mice bearing FRE/erbB2 tumors (˜100 mm^3 in size) were treated with vehicle, the test compound orally or the test compound intravenously. Body weight changes and tumor measurements were obtained at regular intervals (Days 1, 3, 5, and 7). The study was carried out for 7 days.

Chain of erbB2 receptor autophosphorylation (P04626 23-1255): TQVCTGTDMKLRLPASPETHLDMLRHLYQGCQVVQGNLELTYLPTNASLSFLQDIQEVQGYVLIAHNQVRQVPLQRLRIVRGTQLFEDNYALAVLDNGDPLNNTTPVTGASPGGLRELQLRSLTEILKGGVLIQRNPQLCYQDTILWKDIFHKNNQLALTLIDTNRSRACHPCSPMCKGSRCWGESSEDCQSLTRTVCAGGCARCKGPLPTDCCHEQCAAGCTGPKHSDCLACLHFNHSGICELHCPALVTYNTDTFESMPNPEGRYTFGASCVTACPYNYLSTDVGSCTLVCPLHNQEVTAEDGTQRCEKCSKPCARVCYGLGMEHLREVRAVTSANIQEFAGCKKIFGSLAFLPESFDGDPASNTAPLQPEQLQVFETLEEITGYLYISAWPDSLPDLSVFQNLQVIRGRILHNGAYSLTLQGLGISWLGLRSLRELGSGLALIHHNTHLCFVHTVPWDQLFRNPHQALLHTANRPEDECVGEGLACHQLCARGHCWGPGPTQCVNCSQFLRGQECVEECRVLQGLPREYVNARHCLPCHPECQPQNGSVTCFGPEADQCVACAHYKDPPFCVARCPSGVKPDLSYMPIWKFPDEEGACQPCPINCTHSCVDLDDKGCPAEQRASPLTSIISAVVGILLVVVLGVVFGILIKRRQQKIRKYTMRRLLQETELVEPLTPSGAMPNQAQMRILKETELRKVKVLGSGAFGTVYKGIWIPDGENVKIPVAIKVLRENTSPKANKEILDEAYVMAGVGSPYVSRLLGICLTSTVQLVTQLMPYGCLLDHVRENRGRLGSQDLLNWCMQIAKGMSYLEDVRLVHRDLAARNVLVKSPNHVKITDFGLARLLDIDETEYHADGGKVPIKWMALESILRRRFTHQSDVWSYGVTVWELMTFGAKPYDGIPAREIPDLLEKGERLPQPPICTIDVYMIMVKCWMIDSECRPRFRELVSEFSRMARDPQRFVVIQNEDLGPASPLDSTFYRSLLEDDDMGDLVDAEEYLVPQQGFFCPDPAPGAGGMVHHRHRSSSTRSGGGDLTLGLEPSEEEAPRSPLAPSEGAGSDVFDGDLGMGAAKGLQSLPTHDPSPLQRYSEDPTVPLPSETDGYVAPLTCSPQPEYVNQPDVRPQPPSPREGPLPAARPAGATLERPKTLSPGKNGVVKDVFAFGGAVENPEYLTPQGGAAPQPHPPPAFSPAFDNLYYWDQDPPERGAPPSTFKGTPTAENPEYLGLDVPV

## COCC(=O)NC/C=C/c1ccc2ncnc(Nc3ccc(Oc4ccc(C)nc4)c(C)c3)c2c1 [Test Compound, E-2-Methoxy-N-(3-{4-(3-methyl-4-(6-methyl-pyridin-3-yloxy)-phenylamino)-quinazolin-6-yl}-allyl)-acetamide]
[1]; 10.7 mg/kg IV, 4 hr/day
  Plasma Concentration (Mean ± SE): 473 ± 141 ng/mL
[1]; 10.7 mg/kg IV, 4 hr/day, listed as test compound
  Plasma Concentration (Mean ± SE): ~500 ng/mL
[1]; 25 mg/kg PO, QD, 0.5 h post-dosing on day 7
  Plasma Concentration (Mean ± SE): 1460 ± 170 ng/mL
[2]; MDA-MB-453, po, 0.5 h, PO, BID 25 mg/kg (Total Daily Dose = 50 mg/kg), 0.5 hr post-dosing on day 29
  inhibition in vivo at 25 mg/kg: 69%
[2]; MDA-MB-453, po, 0.5 h, PO, BID 50 mg/kg (Total Daily Dose = 100 mg/kg), 0.5 hr post-dosing on day 29
  inhibition in vivo at 50 mg/kg: 75%
[2]; MDA-MB-453, po, 0.5 h, PO, BID 100 mg/kg (Total Daily Dose = 200 mg/kg), 0.5 hr post-dosing on day 29
  inhibition in vivo at 100 mg/kg: 79%
[2]; MDA-MB-453, po, 0.5 h, PO, QD 50 mg/kg, 0.5 hr post-dosing on day 29
  inhibition in vivo at 50 mg/kg: 78%
[2]; MDA-MB-453, po, 0.5 h, PO, QD 100 mg/kg, 0.5 hr post-dosing on day 29
  inhibition in vivo at 100 mg/kg: 88%
[2]; MDA-MB-453, po, 0.5 h, PO, QD 200 mg/kg, 0.5 hr post-dosing on day 29
  inhibition in vivo at 200 mg/kg: 92%
[2]; span over QD (50-200 mg/kg) and BID (25-100 mg/kg) dosings
  reduction of p-erbB2: 69-92%
In vivo
  AUC(0-t): ~985 ng·h/mL
  Cmax: ~1200 ng/mL
In vivo; female, intravenous, 1.4 mg/kg
  concentration at 7 days: 448 ± 141 ng/mL
In vivo; female, oral, 25 mg/kg
  concentration at 0.5 h: 1460 ng/mL
[3]; 25 mg/kg, BID, day 18
  Cave0-4 h: 390 ng/mL
  AUC(0-t): 1560 ng·h/mL
  Cmax: 1780 ng/mL
[3]; 50 mg/kg QD vs 25 mg/kg BID, day 18
  AUC0-4 h and Cave0-4 h, QD group compared to BID dosed group: approximately 2 fold
[3]; 50 mg/kg, BID, day 18
  Cave0-4 h: 1050 ng/mL
  AUC(0-t): 4180 ng·h/mL
  Cmax: 3880 ng/mL
[3]; 50 mg/kg, QD, day 18
  Cave0-4 h: 853 ng/mL
  AUC(0-t): 3410 ng·h/mL
  Cmax: 3640 ng/mL
[3]; 100 mg/kg, BID, day 18
  Cave0-4 h: 2330 ng/mL
  AUC(0-t): 9330 ng·h/mL
  Cmax: 8060 ng/mL
[3]; 100 mg/kg, QD, day 18
  Cave0-4 h: 4080 ng/mL
  AUC(0-t): 16300 ng·h/mL
  Cmax: 12100 ng/mL
[3]; 200 mg/kg QD dosing
  Oral absorption: non-linear
[3]; 200 mg/kg, QD, day 18
  Cave0-4 h: 3780 ng/mL
  AUC(0-t): 15100 ng·h/mL
  Cmax: 10200 ng/mL
[3]; day 18
  Cmax, 50 mg/kg QD compared to 25 mg/kg BID: approximately 2 fold
FRE/erbB2 tumors; 1.4 mg/kg IV, QD, 15 min/day
  Tumor vol. Day 1 (Mean ± SE): 121 ± 24 mm^3
  Tumor vol. Day 7 (Mean ± SE): 749 ± 178 mm^3
  % GI (% Growth Inhibition): 34%
FRE/erbB2 tumors; 1.4 mg/kg IV, QD, 15 min/day, listed as test compound
  % GI (% Growth Inhibition): approximately 34%
FRE/erbB2 tumors; 10.7 mg/kg IV, 4 hr/day
  Tumor vol. Day 1 (Mean ± SE): 117 ± 23 mm^3
  Tumor vol. Day 7 (Mean ± SE): 273 ± 81 mm^3
  % GI (% Growth Inhibition): 76%
FRE/erbB2 tumors; 25 mg/kg PO, QD
  Tumor vol. Day 1 (Mean ± SE): 113 ± 18 mm^3
  Tumor vol. Day 7 (Mean ± SE): 531 ± 101 mm^3
FRE/erbB2 tumors; 25 mg/kg PO, QD, compare to Vehicle (IV) group
  % GI (% Growth Inhibition): 54* %
FRE/erbB2 tumors; 25 mg/kg PO, QD, compare to Vehicle (IV) group, listed as test compound
  % GI (% Growth Inhibition): Approximately 54%
FRE/erbB2 tumors; 25 mg/kg orally once a day, seven days of treatment (FIG. 1)
  FRE tumor volume in treated mice relative to control: about half of the control
FRE/erbB2 tumors; about 10 mg/kg IV for seven days over a four hour period each day (FIG. 2)
  tumor volume increase relative to vehicle control: less than 24%
FRE/erbB2 tumors; rapid infusion of about 1.4 mg/kg daily over about 15 min/day (FIG. 2)
  tumor volume increase relative to vehicle control: less than 66%
[4]; 1.4 mg/kg IV, QD, 15 min/day
  average body weight Day 1: 23 g
  average body weight Day 7: 24 g
[4]; 10.7 mg/kg IV, 4 hr/day
  average body weight Day 1: 22 g
  average body weight Day 7: 22 g
[4]; 25 mg/kg PO, QD
  average body weight Day 1: 21 g
  average body weight Day 7: 22 g
[4]; FRE/erbB2 study, 7 days
  body weight loss or mortality: did not cause any body weight loss or mortality
